Assays:
Assay in all cases: Measurement of transcriptional activity, GAL4-PPAR LBD chimera / PLAP reporter in CV-1 cells
Type in all cases: cell-based
PPAR γ = biological target: T1, PPAR γ (Homo sapiens, UniProt P37231); conditions: PLAP activity secreted 24 hours after addition of the compound, read-out: Transcriptional activities EC50 PPAR γ
T1 construct: 174–475 (PPAR) amino acid regions; expressed in transfected cells; host or cells: CV-1 (ATCC CCL-70)
T1 sequence (P37231 174-475 isoform P37231-2): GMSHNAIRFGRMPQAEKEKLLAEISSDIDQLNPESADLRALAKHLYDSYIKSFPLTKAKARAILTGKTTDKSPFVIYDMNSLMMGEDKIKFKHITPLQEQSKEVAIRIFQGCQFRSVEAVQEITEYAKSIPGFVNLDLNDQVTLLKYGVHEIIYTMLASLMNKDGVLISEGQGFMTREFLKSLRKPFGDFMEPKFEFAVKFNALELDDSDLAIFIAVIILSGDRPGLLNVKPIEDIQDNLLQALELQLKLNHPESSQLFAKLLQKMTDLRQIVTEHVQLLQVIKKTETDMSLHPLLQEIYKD
Text: (§1) Measurement of Transcriptional Activity
(§2) A GAL4-PPAR LBD chimera expression vector was constructed by ligating human PPAR 167–468 (PPAR), 138–440 (NUC-1) and 174–475 (PPAR) amino acid regions (LBD: Ligand Binding Domain) to a yeast transcriptional factor GAL4 1–147 amino acid region. As the reporter gene, PLAP (Placental Alkaline Phosphatase) was used, and this was ligated downstream of a TK promoter containing a 5-copy GAL4 DNA binding element to construct a vector. As host cells, CV-1 (ATCC CCL-70) was used. That is, CV-1 cells were spread at a density of 5×10^5 cells on a 35-mm dish and cultured in 10% FCS/DMEM for 24 hours, and using FuGENE 6 transfection reagent, the cells were co-transfected with the GAL4-PPAR LBD expression vector and GAL4 DBD-TK-PLAP expression vector. 24 hours after this transfection, the cells were spread again on a 96-well plate at a density of 1×10^4/well and further cultured for 24 hours. After 24 hours, the medium was exchanged with DMEM containing 10% FCS, which was previously treated at 65° C. for inactivating intrinsic alkaline phosphatase, and a test compound was added at an arbitrary concentration. The transcriptional activity was determined in terms of PLAP activity secreted 24 hours after addition of the compound, to calculate EC50. The PLAP activity was determined after adding 50 μl assay buffer and 50 μl chemoluminescence substrate to 10 μl culture supernatant and incubating the mixture at room temperature for 1 hour. The transcriptional activities for PPARα, PPARβ(δ) and PPARγ are shown respectively in Table 1.

PPAR α = biological target: T2, PPAR α (Homo sapiens, UniProt Q07869); conditions: PLAP activity secreted 24 hours after addition of the compound, read-out: Transcriptional activities EC50 PPAR α
T2 construct: human PPAR 167–468 (PPAR); expressed in transfected cells; host or cells: CV-1 (ATCC CCL-70)
T2 sequence (Q07869 167-468): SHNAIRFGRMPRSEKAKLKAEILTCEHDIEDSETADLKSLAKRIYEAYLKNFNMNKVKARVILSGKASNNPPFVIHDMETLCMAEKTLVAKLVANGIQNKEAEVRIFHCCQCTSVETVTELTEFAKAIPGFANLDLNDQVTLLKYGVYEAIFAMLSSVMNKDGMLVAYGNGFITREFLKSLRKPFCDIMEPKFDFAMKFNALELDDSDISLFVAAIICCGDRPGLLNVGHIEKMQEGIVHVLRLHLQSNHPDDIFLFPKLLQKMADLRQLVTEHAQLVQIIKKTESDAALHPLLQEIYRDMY
Text: as §1, §2

PPAR β = biological target: T3, PPAR β (Homo sapiens, UniProt Q03181); conditions: PLAP activity secreted 24 hours after addition of the compound, read-out: Transcriptional activities EC50 PPAR β
T3 construct: 138–440 (NUC-1); expressed in transfected cells; host or cells: CV-1 (ATCC CCL-70)
T3 sequence (Q03181 138-440): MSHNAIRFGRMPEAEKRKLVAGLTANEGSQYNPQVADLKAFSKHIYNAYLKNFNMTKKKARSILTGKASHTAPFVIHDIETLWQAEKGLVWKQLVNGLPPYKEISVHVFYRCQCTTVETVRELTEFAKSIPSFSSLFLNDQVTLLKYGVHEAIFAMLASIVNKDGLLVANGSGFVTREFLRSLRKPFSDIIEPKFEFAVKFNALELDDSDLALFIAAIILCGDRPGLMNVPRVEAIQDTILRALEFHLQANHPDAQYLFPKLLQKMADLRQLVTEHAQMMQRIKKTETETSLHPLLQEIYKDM
Text: as §1, §2

| EC50 (PPAR γ) [nM] | EC50 (PPAR α) [nM] | EC50 (PPAR β) [nM] | Compound |
| --- | --- | --- | --- |
| 3.4 | 17.9 | 1600 | CC(C)Oc1ccc(C(=O)NCc2cc(CC(OC(C)C)C(=O)O)cc3c2OCC3)c(Cl)c1 (stereo not drawn) [Example 42, 3-(7-[(2-Chloro-4-isopropoxybenzoyl)amino]methyl-2,3-dihydrobenzo[b]furan-5-yl)-2-isopropoxypropionic acid] |
| 5.8 | 10.8 | 1000 | COc1ccc(CC(OC(C)C)C(=O)O)c(OC)c1CNC(=O)c1ccc(OC2CCCC2)cc1Cl (stereo not drawn) [Example 11, 3-(3-[(2-Chloro-4-cyclopentyloxybenzoyl)amino]methyl-2,4-dimethoxyphenyl)-2-isopropoxypropionic acid] |
| 52.4 | 66.5 | 483 | CC(C)OC(Cc1cc(CNC(=O)c2ccc(C(F)(F)F)cc2F)c2occc2c1)C(=O)O (stereo not drawn) [Example 35] |

Source: US7244861B2, “Benzene compound and salt thereof” (Eisai Co., Ltd., priority 2001, dated 2007)
